Two sequences from PMC4838304, “Effective Design of Multifunctional Peptides by Combining Compatible Functions” (PLoS Computational Biology, 2016) can be followed below.

Ends that are not written are not given here. A value given as a limit tells only on which side of the number the result lay.

This assay concerns Escherichia coli strain DH5α. In words: microbe, parasite or virus in culture. The assay is classed as cell-based. Particulars: for MIC: DH5α, 24 h, read-out: E. coli MIC for 50% inhibition. The text has this:
If CPP, DNA binding and AMP activities are compatible, the designed peptides should inhibit bacterial growth. Here we exposed E. coli DH5α cells to varying low concentrations of the designed peptides as well as several controls (see Fig 4). […] To test whether α-factor was important for AMP activity we also tested pure α-factor, pure NLS, the optimized NLS fitting CPP rules (NLS-CE) and the Iztli-1 peptide, a previously reported peptide with an embedded α-factor specifically designed to have antibacterial activity. […] A linear trend could be observed between concentration and growth inhibition (regression lines with standard deviations shown in Fig 6). […] The minimal inhibitory concentrations for E. coli are reported in Table 2 (growth curves are shown in S4 Fig).
Fig 6 Antibacterial activity. DH5α E. coli cells were treated with varying concentrations of peptides ranging from 0 to 16 μM for the peptides and 0 to 48 μM for Ampicillin. The relative area under the growth curve measured the growth inhibition. Measurements from four repetitions distributed onto two different plates are shown as dots colored by their respective concentrations. Linear regressions are shown as blue lines and their respective standard errors as blue shades. Dashed lines indicate the mean area under the curve for the H2O controls and its 50% value respectively. Minimal inhibitory concentrations to achieve 50% or 100% of cell growth inhibition are reported.
Escherichia coli strain DH5α was grown for 12 hours to mid-log phase and diluted to 8·10^5 cells/ml by using the reference OD obtained by absorption spectroscopy. Each sample 100μL culture was treated with 50μL solution containing the respective peptide in the desired concentration or water in the case of the controls. Growth curves were measured on two 96 well half area plates with two replicates each followed for 24h using a plate reader (Synergy, USA). In order to minimize plate-specific effects due to variations in loading time or initial cell numbers, different plates measurements were normalized by the time-point where the water control samples reached their half-maximal OD before combining. The respective minimum from each growth curve was subtracted from the normalized data from individual or combined plates. Areas under the curves were obtained by applying a linear interpolation to the OD curves, which was then integrated exactly. Growth rates were obtained by log-transforming the growth curves, identifying the exponential phase by the linear parts in that log-transformation (OD600 between 0.05 and 0.5) and performing a linear regression in the exponential phase with the slope denoting the respective growth rate. All mentioned methodology was implemented in R (www.r-project.org) and is available as open source at http://github.com/cdiener/dcf.
Using the slope of the linear regressions determined in these experiments, we estimated the minimal inhibitory concentration (MIC) for E. coli of our 3 CPP designed peptides (α-NLS-C, NLS-α-CE and chimera) and tested it experimentally.

Setting [1] is: E. coli DH5α, peptides 0 to 16 μM.

With “FRKWRRKPKKKRKVWWRKVKRRWHWLQLKPGQPMY [NLS-α-CE]”, the MIC is below 2 µM. Moreover, the “concentration abolishing E. coli growth completely” value under setting [1] came to 2 µM.
As to “KRRWRFVWMNPKKKRKVPPWPYLLWWHWLQLKPGQPMY [chimera]”, the MIC worked out at 4 µM. Under setting [1], the “concentration showing partial growth inhibition” value came out at 2 µM.
